{
  "source": "patent US4039736A",
  "about": "(Bristol-Myers Company, priority 1976, dated 1977)",
  "key": {"[1]": {"system": "Streptococcus pneumoniae A-9585", "assay": "MIC, standard tube dilution procedure", "assay_type": "cell-based", "details": "Streptococcus pneumoniae, A9585"}, "[2]": {"system": "Trichophyton mentagrophytes A-9870", "assay": "MIC, standard tube dilution procedure", "assay_type": "cell-based", "details": "Trichophyton mentagrophytes, A9870"}, "[3]": {"system": "Candida krusei A-15052", "assay": "MIC, standard tube dilution procedure", "assay_type": "cell-based", "details": "Pichia kudriavzevii, A15052"}, "[4]": {"system": "Staphylococcus aureus A-9537", "assay": "MIC, standard tube dilution procedure", "assay_type": "cell-based", "details": "Staphylococcus aureus, A9537"}, "[5]": {"system": "Staphylococcus aureus A-9497", "assay": "MIC, standard tube dilution procedure", "assay_type": "cell-based", "details": "Staphylococcus aureus, A9497"}, "[6]": {"system": "L-1210 leukemia", "assay": "transplanted mouse leukemia L-1210 (ascitic)", "details": "Example 7 column fraction", "method": "(§1) The compounds of the present invention were also tested against various transplantable rodent tumer systems.\n(§2) Single injection Day 1 intraperitoneally.?\n(§3) T/C percent MST=median survival time in days: Treated/Control × 100"}, "[7]": {"assay": "acute intraperitoneal LD50 in mice", "details": "mouse, in vivo, ip"}, "[8]": {"system": "Proteus mirabilis A-9900", "assay": "MIC, standard tube dilution procedure", "assay_type": "cell-based", "details": "Proteus mirabilis, A9900"}, "[9]": {"system": "Klebsiella pneumoniae A-9977", "assay": "MIC, standard tube dilution procedure", "assay_type": "cell-based", "details": "Klebsiella pneumoniae, A9977"}, "[10]": {"system": "Escherichia coli A-15119", "assay": "MIC, standard tube dilution procedure", "assay_type": "cell-based", "details": "Escherichia coli, A15119"}, "[11]": {"system": "Escherichia coli A-21780", "assay": "MIC, standard tube dilution procedure", "assay_type": "cell-based", "details": "Escherichia coli, A21780"}, "[12]": {"system": "Candida albicans A-9540", "assay": "MIC, standard tube dilution procedure", "assay_type": "cell-based", "details": "Candida albicans, A9540"}, "[13]": {"system": "Candida tropicalis A-15051", "assay": "MIC, standard tube dilution procedure", "assay_type": "cell-based", "details": "Candida tropicalis, A15051"}, "[14]": {"system": "P-388 leukemia", "assay": "transplanted mouse leukemia P-388 (ascitic)", "details": "Example 7 column fraction", "method": "as §1, §2, §3"}, "[15]": {"system": "Cryptococcus neoformans A-1503", "assay": "MIC, standard tube dilution procedure", "assay_type": "cell-based", "details": "Cryptococcus neoformans, A1503"}, "[16]": {"system": "L-1210 leukemia", "assay": "L-1210 mouse leukemia, purified compounds, BDF1 female mice", "method": "Inoculum: 10^6 ascitic cells, i.p. into BDF1 female mice\nTreatment: i.p. in 0.5 ml. volume\nEvaluation: MST = median survival time in days; %T/C = MST treated/MST\n(prolongation of host survival)"}, "[17]": {"system": "Streptococcus pyogenes A-9604", "assay": "MIC, standard tube dilution procedure", "assay_type": "cell-based", "details": "Streptococcus pyogenes, A9604"}, "[18]": {"details": "3.2 mg/kg/day i.p., Day 1, 1 injection"}, "[19]": {"details": "3.2 mg/kg/day i.p., Day 1→5, 5 injections"}, "[20]": {"details": "6.4 mg/kg/day i.p., Day 1, 1 injection"}, "[21]": {"details": "6.4 mg/kg/day i.p., Day 1→5, 4 injections"}, "[22]": {"details": "12.8 mg/kg/day i.p., Day 1, 1 injection"}, "[23]": {"details": ".2 mg/kg/day i.p., Day 1→5, 5 injections"}, "[24]": {"details": ".4 mg/kg/day i.p., Day 1, 1 injection"}, "[25]": {"details": ".4 mg/kg/day i.p., Day 1→5, 5 injections"}, "[26]": {"details": ".8 mg/kg/day i.p., Day 1, 1 injection"}, "[27]": {"details": ".8 mg/kg/day i.p., Day 1→5, 5 injections"}},
  "data": [
    {"smiles": "CC[C@@]1(O)C[C@H](O[C@H]2C[C@H](N(C)C)[C@H](O[C@H]3C[C@H](O)[C@H](O[C@H]4C[C@H](O)[C@H](O)[C@H](C)O4)[C@H](C)O3)[C@H](C)O2)c2c(cc3c(c2O)C(=O)c2c(O)ccc(O)c2C3=O)[C@H]1C(=O)OC", "note": "[marcellomycin]", "values": [
      {"measurement": "MIC", "setting": "[1]", "value": 0.03, "unit": "µg/mL"},
      {"measurement": "MIC", "setting": "[2]", "value": "> 125", "unit": "µg/mL"},
      {"measurement": "MIC", "setting": "[3]", "value": 125, "unit": "µg/mL"},
      {"measurement": "MIC", "setting": "[4]", "value": 1, "unit": "µg/mL"},
      {"measurement": "MIC", "setting": "[5]", "value": 1, "unit": "µg/mL"},
      {"measurement": "activity on L-1210 mouse leukemia", "setting": "[6]", "value": "high activity"},
      {"measurement": "LD50", "setting": "[7]", "value": "6.35 to 10.6", "unit": "mg/kg"},
      {"measurement": "MIC", "setting": "[8]", "value": "> 125", "unit": "µg/mL"},
      {"measurement": "MIC", "setting": "[9]", "value": 125, "unit": "µg/mL"},
      {"measurement": "MIC", "setting": "[10]", "value": 125, "unit": "µg/mL"},
      {"measurement": "MIC", "setting": "[11]", "value": 32, "unit": "µg/mL"},
      {"measurement": "MIC", "setting": "[12]", "value": 125, "unit": "µg/mL"},
      {"measurement": "MIC", "setting": "[13]", "value": 125, "unit": "µg/mL"},
      {"measurement": "activity on P-388 mouse leukemia", "setting": "[14]", "value": "high activity"},
      {"measurement": "MIC", "setting": "[15]", "value": 125, "unit": "µg/mL"},
      {"measurement": "Average Weight Change", "setting": "[16]; [18]", "value": -0.7, "unit": "g"},
      {"measurement": "MST %T/C", "setting": "[16]; [18]", "value": 157, "unit": "%"},
      {"measurement": "MST Days", "setting": "[16]; [18]", "value": 11.0, "unit": "days"},
      {"measurement": "Survivors Day 5", "setting": "[16]; [18]", "value": "6/6"},
      {"measurement": "Average Weight Change", "setting": "[16]; [19]", "value": -1.2, "unit": "g"},
      {"measurement": "MST %T/C", "setting": "[16]; [19]", "value": 86, "unit": "%"},
      {"measurement": "MST Days", "setting": "[16]; [19]", "value": 6.0, "unit": "days"},
      {"measurement": "Survivors Day 5", "setting": "[16]; [19]", "value": "3/6"},
      {"measurement": "Average Weight Change", "setting": "[16]; [20]", "value": -0.7, "unit": "g"},
      {"measurement": "MST %T/C", "setting": "[16]; [20]", "value": 157, "unit": "%"},
      {"measurement": "MST Days", "setting": "[16]; [20]", "value": 11.0, "unit": "days"},
      {"measurement": "Survivors Day 5", "setting": "[16]; [20]", "value": "6/6"},
      {"measurement": "Average Weight Change in g.", "setting": "[16]; [21]", "value": "TOXIC"},
      {"measurement": "MST %T/C", "setting": "[16]; [21]", "value": "TOXIC"},
      {"measurement": "MST Days", "setting": "[16]; [21]", "value": "TOXIC"},
      {"measurement": "Survivors Day 5", "setting": "[16]; [21]", "value": "0/6"},
      {"measurement": "Average Weight Change", "setting": "[16]; [22]", "value": -0.7, "unit": "g"},
      {"measurement": "MST %T/C", "setting": "[16]; [22]", "value": 143, "unit": "%"},
      {"measurement": "MST Days", "setting": "[16]; [22]", "value": 10.0, "unit": "days"},
      {"measurement": "Survivors Day 5", "setting": "[16]; [22]", "value": "3/6"},
      {"measurement": "Average Weight Change", "setting": "[16]; [23]", "value": -1.1, "unit": "g"},
      {"measurement": "MST %T/C", "setting": "[16]; [23]", "value": 129, "unit": "%"},
      {"measurement": "MST Days", "setting": "[16]; [23]", "value": 9.0, "unit": "days"},
      {"measurement": "Survivors Day 5", "setting": "[16]; [23]", "value": "6/6"},
      {"measurement": "Average Weight Change", "setting": "[16]; [24]", "value": -0.8, "unit": "g"},
      {"measurement": "MST %T/C", "setting": "[16]; [24]", "value": 129, "unit": "%"},
      {"measurement": "MST Days", "setting": "[16]; [24]", "value": 9.0, "unit": "days"},
      {"measurement": "Survivors Day 5", "setting": "[16]; [24]", "value": "6/6"},
      {"measurement": "Average Weight Change", "setting": "[16]; [25]", "value": 0, "unit": "g"},
      {"measurement": "MST %T/C", "setting": "[16]; [25]", "value": 129, "unit": "%"},
      {"measurement": "MST Days", "setting": "[16]; [25]", "value": 9.0, "unit": "days"},
      {"measurement": "Survivors Day 5", "setting": "[16]; [25]", "value": "6/6"},
      {"measurement": "Average Weight Change", "setting": "[16]; [26]", "value": 0, "unit": "g"},
      {"measurement": "MST %T/C", "setting": "[16]; [26]", "value": 150, "unit": "%"},
      {"measurement": "MST Days", "setting": "[16]; [26]", "value": 10.5, "unit": "days"},
      {"measurement": "Survivors Day 5", "setting": "[16]; [26]", "value": "6/6"},
      {"measurement": "Average Weight Change", "setting": "[16]; [27]", "value": -0.2, "unit": "g"},
      {"measurement": "MST %T/C", "setting": "[16]; [27]", "value": 143, "unit": "%"},
      {"measurement": "MST Days", "setting": "[16]; [27]", "value": 10.0, "unit": "days"},
      {"measurement": "Survivors Day 5", "setting": "[16]; [27]", "value": "6/6"},
      {"measurement": "potency relative to musettamycin in inhibitory effects on L-1210", "setting": "[16]; purified, L-1210 mouse leukemia", "value": "about four times"},
      {"measurement": "MIC", "setting": "[17]", "value": 0.03, "unit": "µg/mL"}
    ]}
  ]
}
